Results taken from patent publication US20190241569A1, “3-(ARYL OR HETEROARYL) METHYLENEINDOLIN-2-ONE DERIVATIVES AS INHIBITORS OF CANCER STEM CELL PATHWAY KINASES FOR THE TREATMENT OF CANCER” (Boston Biomedical, Inc., priority 2013, published 2019).
Where two headings read alike, the source gives them in different places.

What was measured:
Assay type in all cases: cell-based
A549 = assay: Bulk cancer cells, Cell Titer-Glo 72 hours (Test Example 2); details: Homo sapiens
Description: (§1) Tubes of 3× drug (60 uM in 500 uL complete media) were prepared from 5 mM stock solutions in DMSO. […] To treat cells, 50 uL of drug from the dilution plate was removed and added to the cell plates. […] Cells were harvested 72 hours after drug addition using Cell Titer-Glo (Promega) and luminescence measured on a plate reader.

ACHN = assay: as above; details: Homo sapiens, ACHN, 72 h
Description: as §1

FaDu = assay: as above; details: Homo sapiens
Description: as §1

FaDu CSC = assay: Cancer stem cells, Cell Titer-Glo 72 hours (Test Example 3); details: Homo sapiens, FaDu, 72 h
A549 CSC = assay: as above; details: Homo sapiens
ACHN CSC = assay: as above; details: Homo sapiens, ACHN, 72 h
p-AMPK Thr172 = assay: Kinase inhibition, Western blot in HeLa cells (Test Example 5); details: Homo sapiens, 6 hours, DMSO = 100, read-out: p-AMPK Relative Intensity (%)
Description: (§2) HeLa cells were treated with 5 uM of the indicated compound for 6 hours. Following compound incubation, cells were washed twice with ice-cold PBS and lysed in lysis buffer (50 mM HEPES, pH 7.5, 1% Nonidet P40, 150 mM NaCl, 1 mM EDTA, 1× protease inhibitor cocktail (Promega)). 30 micrograms of soluble protein was separated by SDS-PAGE and transferred to PVDF membranes. Primary antibodies against p-AMPK Thr172, p-RPS6 Ser235/236, p-RPS6 Ser240/244, and Tubulin (Cell Signaling Technology) were used. The antigen-antibody complexes were visualized by enhanced chemiluminescence (BioRad). The results are shown below in Tables 17A-17E.

p-RPS6 Ser235/236 = assay: as above; details: Homo sapiens, 6 hours, DMSO = 100, read-out: p-RPS6 Ser235/236 Relative Intensity (%)
Description: as §2

p-RPS6 Ser240/244 = assay: as above; details: Homo sapiens, 6 hours, DMSO = 100, read-out: p-RPS6 Ser240/244 Relative Intensity (%)
Description: as §2

SMILES | IC50 (A549) [µM] | IC50 (ACHN) [µM] | IC50 (FaDu) [µM] | IC50 (FaDu CSC) [µM] | IC50 (A549 CSC) [µM] | IC50 (ACHN CSC) [µM] | activity at 5 µM (p-AMPK Thr172; 5 uM) [%] | activity at 5 µM (p-RPS6 Ser235/236; 5 uM) [%] | activity at 5 µM (p-RPS6 Ser240/244; 5 uM) [%] | activity at 5 µM (p-AMPK Thr172; 5 uM compound, Western blot) [%] | activity at 5 µM (p-RPS6 Ser235/236; 5 uM compound, Western blot) [%] | activity at 5 µM (p-RPS6 Ser240/244; 5 uM compound, Western blot) [%]
Cc1[nH]c(/C=C2\C(=O)Nc3ccc(-c4csc(-c5ccccc5)n4)nc32)c(C)c1C(=O)NCCN1CCCC1 [Example 119] | 1.43 | 1.52 | 1.73 | 0.17 | 2.47 | 0.4 | 41 | 13 | 51 | – | – | –
CCN(CC)CCNC(=O)c1c(C)[nH]c(/C=C2\C(=O)Nc3ccc(-c4csc(-c5ccc(O)cc5)n4)cc32)c1C [Example 126] | 3.06 | 1.38 | 0.7 | 1.85 | 6.99 | 0.5 | 47 | 79 | 88 | – | – | –
Cc1cc(C)c(/C=C2\C(=O)Nc3cccc(-c4ccc5cc[nH]c5c4)c32)[nH]1 [Example 273] | 16.6 | 20.4 | 16.4 | – | 20.2 | 18.9 | – | – | – | 27 | 36 | 35
CCN(CC)CCNC(=O)c1c(C)[nH]c(/C=C2\C(=O)Nc3ccc(-c4csc(-c5ccccc5)n4)nc32)c1C [Example 118] | 1.74 | 1.37 | 1.37 | 0.11 | 0.62 | 0.97 | 35 | 5 | 42 | – | – | –
Cc1cc(C)c(/C=C2\C(=O)Nc3cccc(-c4cncnc4)c32)[nH]1 [Example 278] | 16.3 | 16.8 | 39.7 | – | – | – | – | – | – | 198 | 44 | 43
CCN(CC)CCNC(=O)c1c(C)[nH]c(/C=C2\C(=O)Nc3c2cccc3-c2csc(-c3ccccc3)n2)c1C [Example 9] | 1.96 | 3.2 | 3.75 | 1.26 | 1.57 | 0.28 | 144 | 2 | 32 | – | – | –
CCN(CC)CCNC(=O)c1c(C)[nH]c(/C=C2\C(=O)Nc3c2cccc3-c2cccnc2OC)c1C [Example 286] | 5.32 | 3.64 | 3.81 | 1.92 | 6.87 | 2.71 | – | – | – | 31 | 48 | 54
CCN(CC)CCNC(=O)c1c(C)[nH]c(/C=C2\C(=O)Nc3c2cccc3-c2cncc(C)c2)c1C [Example 283] | 3.36 | 1.68 | 6.23 | 2.2 | 2.23 | 1.97 | – | – | – | 50 | 47 | 59
Cc1cc(C)c(/C=C2\C(=O)Nc3c2cccc3-c2cncnc2)[nH]1 [Example 276] | 25.2 | 26.9 | 28.1 | – | – | – | – | – | – | 113 | 51 | 50
Cc1[nH]c(/C=C2\C(=O)Nc3cccc(-c4ccc(-c5ccccc5)cc4)c32)c(C)c1C(=O)N1CCN(C)CC1 [Example 110] | 21.5 | 14.9 | 7.56 | 1.21 | 5.76 | – | 105 | 2 | 36 | – | – | –
COc1ncc(-c2cccc3c2NC(=O)/C3=C\c2[nH]c(C)cc2C)cn1 [Example 275] | 17.7 | 21.9 | 20.8 | – | 34.7 | 17.5 | – | – | – | 96 | 57 | 54
COc1ccc(-c2cccc3c2NC(=O)/C3=C\c2[nH]c(C)cc2C)cn1 [Example 274] | 24.4 | 28.3 | 28.4 | – | 43.4 | – | – | – | – | 91 | 63 | 59
Cc1cc(C)c(/C=C2\C(=O)Nc3c2cccc3-c2ccncc2)[nH]1 [Example 281] | 23.5 | – | – | – | – | – | – | – | – | 83 | 68 | 65
Cc1cc(C)c(/C=C2\C(=O)Nc3c2cccc3-c2cncc3ccccc23)[nH]1 [Example 279] | 19.7 | 21 | 25.8 | – | – | – | – | – | – | 108 | 86 | 83
COC(=O)c1c(C)[nH]c(/C=C2\C(=O)Nc3ccc(-c4csc(C5CCNCC5)n4)cc32)c1C [Example 144] | 0.7 | 0.52 | 0.69 | 0.22 | 2.48 | – | 79 | 70 | 83 | – | – | –
Cc1nc(-c2ccccc2)oc1-c1ccc2c(c1)NC(=O)/C2=C\c1[nH]c(C)c(C(=O)N2CCN(C)CC2)c1C [Example 38] | – | – | – | 1.6 | – | 0.5 | 103 | 2 | 21 | – | – | –
COc1ncc(-c2cccc3c2/C(=C/c2[nH]c(C)cc2C)C(=O)N3)cn1 [Example 277] | 21.1 | 28.1 | 35.3 | – | – | – | – | – | – | 145 | 77 | 75
Cc1cncc(-c2cccc3c2NC(=O)/C3=C\c2[nH]c(C)cc2C)c1 [Example 280] | 21.2 | 16 | 26.4 | – | 32 | 32 | – | – | – | 103 | 74 | 75
CCN(CC)CCNC(=O)c1c(C)[nH]c(/C=C2\C(=O)Nc3ccc(-c4nc(-c5ccccc5)cs4)cc32)c1C [Example 51, (Z)-N-(2-(diethylamino)ethyl)-2,4-dimethyl-5-((2-oxo-5-(4-phenylthiazol-2-yl)indolin-3-ylidene)methyl)-1H-pyrrole-3-carboxamide] | 4.74 | 1.64 | 1.18 | 0.27 | 4.28 | – | 12 | 21 | 64 | – | – | –
CCN(CC)CCNC(=O)c1c(C)[nH]c(/C=C2\C(=O)Nc3cc(-c4oc(-c5ccccc5)nc4C)ccc32)c1C [Example 37] | 7.49 | 2.97 | 3.55 | 8.09 | – | 1.65 | 151 | 4 | 43 | – | – | –
